Test results from US10030260B2, “Inducible reconstitution and real-time quantitative kinetic system for the study of intramembrane enzymes” (THE JOHNS HOPKINS UNIVERSITY, priority 2012, dated 2018).
Residue numbers refer to the chain shown, from its start. “Also recorded” adds a separate entry of the source. Where a SMILES comes first, the peptide text is derived from it. The star is where a group is joined. FITC = O=C1OC2(c3ccc(O)cc3Oc3cc(O)ccc32)c2ccc(NC(=S)*)cc21; βAla = NCCC(=O)O

Legend:
HA-PsAarA = molecular target: T1, HA-PsAarA (Providencia stuartii, UniProt P46116); assay: Real-time kinetics of substrate variants in proteoliposomes; assay type: biochemical; settings: in words
T1 construct: GST (cleaved yes); made in house; host or cells: E. coli C43 (DE3)
T1 sequence (P46116 whole entry, looked up): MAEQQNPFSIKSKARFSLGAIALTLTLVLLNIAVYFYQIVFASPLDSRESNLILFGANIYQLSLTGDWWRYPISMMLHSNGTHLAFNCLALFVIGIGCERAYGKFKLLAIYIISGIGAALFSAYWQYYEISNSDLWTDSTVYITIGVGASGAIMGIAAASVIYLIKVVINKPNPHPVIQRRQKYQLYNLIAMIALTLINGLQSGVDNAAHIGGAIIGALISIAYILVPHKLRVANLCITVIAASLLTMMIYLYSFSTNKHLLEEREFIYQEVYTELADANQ
Procedure: (§1) 30 μg of E. coli liposomes were mixed with 50 mM NaAcetate pH 4.0, 150 mM NaCl, 0.05 to 500 pmoles of rhomboid enzyme, and 20 to 1600 pmoles of FITC-substrate. This co-reconstitution mix was diluted 20-fold with 12.5 mM NaAcetate pH 4.0, 37.5 mM NaCl to reduce detergent below its critical micelle concentration and promote reconstitution. Proteoliposomes were collected by ultracentrifugation at 600,000 g for 20 minutes in an Optima MAX-XP ultracentrifuge (Beckman). […] Fluorescence was monitored every minute using monochromators set to wavelengths of 485±20 nm (excitation) and 528±20 nm (emission). Alternatively, time points were quenched with equal volumes of 2× Tricine SDS-sample buffer, resolved on 16% Tricine gels (Life Technologies), and imaged with a blue laser and fluorescein emission filters on a Typhoon Imager (GE Healthcare). APP+Spi7-Flag and HA-EcGlpG were co-reconstituted as above, resolved by SDS-PAGE, detected by 2-color anti-Flag and anti-HA western analysis, and imaged with an Odyssey infrared scanner (LiCor Biosciences).
(§2) All data were analyzed and graphed using the R language and environment. Initial rates were extracted from real-time curves between 4 and 14 minutes using the slope (m) in a linear model: y=mx+b. […]

E. coli GlpG = molecular target: T2, E. coli GlpG (Escherichia coli, UniProt P09391); assay: Inducible reconstitution and real-time proteolysis assay in proteoliposomes; assay type: biochemical
T2 construct: GST (cleaved yes); made in house; host or cells: E. coli C43 (DE3)
Procedure: as §1
as §2, with “y=mx+b. Initial rates versus substrate concentration of reconstituted reactions were modeled using the Hill-modified Michaelis Menten equation: v0=(Vmax*[S0]^h)/(Km^h+[S0]^h).” for “y=mx+b.”
To establish controlled conditions for a Michaelis-Menten kinetic system, we lowered GlpG levels to 4 pmoles while varying substrate from 20 to 1600 pmoles and co-reconstituted both into 200 nm proteoliposomes comprised of E. coli lipids to preserve its physiological environment as much as possible (FIG. 9A). […] Finally, FITC-TatA reconstituted in both orientations in approximately equal proportions, as quantified by reacting single engineered cysteines with membrane-impermeable dyes (FIG. 3A). […]

[1] = molecular target: T3, catalytically inactive TMR-GlpG (C104A+W196TMR+H254A) (Escherichia coli, UniProt P09391, C104A/H254A/W196C); assay: FRET analysis of protease-substrate affinity in membranes; assay type: binding; settings: in proteoliposomes
T3 construct: His (N); TMR (tetramethylrhodamine-5-maleimide) dye on the side chain of Cys196; made in house
T3 sequence (P09391 1-276 C104A/W196C/H254A): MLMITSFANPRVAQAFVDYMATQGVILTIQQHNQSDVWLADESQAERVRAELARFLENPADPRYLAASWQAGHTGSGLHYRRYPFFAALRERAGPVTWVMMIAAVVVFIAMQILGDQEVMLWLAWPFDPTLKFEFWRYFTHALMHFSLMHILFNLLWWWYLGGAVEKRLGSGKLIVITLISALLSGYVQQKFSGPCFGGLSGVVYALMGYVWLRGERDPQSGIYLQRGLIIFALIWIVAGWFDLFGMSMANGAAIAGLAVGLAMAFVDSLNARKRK
Procedure: Purified N-terminally His-tagged EcGlpG H254A+C104A+W196C protein was labeled at the single cysteine residue with the FRET acceptor tetramethylrhodamine-5-maleimide (TMR) (Life Technologies). Reconstitutions into E. coli liposomes were performed as described above, except that 30 pmoles of TMR-labeled protein was mixed with 25-800 pmoles of the FITC-TatA ligand. Following reconstitution, the samples were incubated at 37° C. in a Synergy H4 Hybrid plate reader. Fluorescence was measured with excitation at 485 nm and emission from 510-600 nm in 5 nm intervals. The FRET interaction was calculated at the 580 nm emission wavelength by subtracting the TMR-labeled GlpG protein alone and the FITC-TatA alone samples from the sample containing both macromolecules.

HA-EcGlpG = molecular target: T4, HA-EcGlpG (Escherichia coli, UniProt P09391); assay: Proteolysis assay in detergent micelles; assay type: biochemical; settings: faster in detergent
T4 construct: GST (cleaved yes); made in house; host or cells: E. coli C43 (DE3)
T4 sequence (P09391 1-276): T3 sequence (P09391 1-276 C104A/W196C/H254A) with A104C, C196W, A254H
Procedure: Cleavage reactions of APP+Spi7-Flag were performed as described previously and imaged with an Odyssey infrared scanner (LiCor Biosciences) (Baker and Urban, 2012; Baker et al., 2007). […] Reactions were quenched and analyzed on 16% tricine gels as above. Actual substrate concentrations were calibrated using FITC-TatA standards analyzed in parallel.

[2] = molecular target: T5, inactive EcGlpG mutants (His-EcGlpG C104A+H254A; HA-EcGlpG S201A+H254A) (Escherichia coli, UniProt P09391, C104A/H254A); assay type: binding; settings: co-precipitation
T5 construct: made in house
Procedure: (§3) 2.5 μM His-tagged EcGlpG C104A+H254A with 70 μM FITC-TatA was incubated with pre-equilibrated Ni^2+-NTA resin (Qiagen) for 3 hours at room temperature. The resin was washed, and bound proteins were eluted with SDS-sample buffer for 30 minutes. FITC-TatA was detected as above using a 16% Tricine gel and a Typhoon Imager. His-EcGlpG C104A+H254A was detected by western blot with the mouse anti-penta-His antibody (Qiagen), and imaged with an Odyssey infrared scanner (LiCor Biosciences).
(§4) Two Superdex 200 PC 3.2/30 high-resolution gel filtration columns (GE Healthcare) were connected in tandem to a ProStar 410 HPLC system (Agilent/Varian), and equilibrated with 9.5 μM FITC-TatA in 2 mM phosphate buffer pH 7.4, 25 mM Tris pH 7.4, 120 mM NaCl, 0.15% Sarkosyl, 0.1% DDM, 1 mM DTT. 20 μM HA-EcGlpG S201A+H254A was preincubated with 9.5 μM FITC-TatA, and 50 μL was injected using an Autosampler 410 onto the columns at a flow rate of 0.05 mL/minute. Elution was monitored by absorbance at all wavelengths between 200 to 600 nm simultaneously using a PDA 330 detector. The FITC-TatA peak was quantified relative to known FITC-TatA concentration standards that were run on the columns equilibrated with 9.5 μM FITC alone in buffer. Conventional gel filtration was conducted under similar conditions, except the columns were equilibrated with buffer lacking FITC-TatA.

[3] = molecular target: inactive EcGlpG mutants (His-EcGlpG C104A+H254A; HA-EcGlpG S201A+H254A); assay type: binding, Escherichia coli; settings: gel filtration and co-precipitation, non-equilibrium; read-out: Kd (low affinity)
Procedure: as §3, §4

EcGlpG = EcGlpG (Escherichia coli, UniProt P09391); settings: 37° C. for 3 hours
Procedure: Rhomboid protein in 50 mM Tris pH 7.4, 150 mM NaCl, 0.1% DDM was incubated with either 10% DMSO only or carrying […] JLK6 at 37° C. for 3 hours, purified using a C4 ZipTip, and analyzed by mass spectrometry as described previously (Pierrat et al., 2011).

[4] = system: three different rhomboid proteases; assay: Manual 384-well compound screen in proteoliposomes; assay type: biochemical; settings: 1 hour at 37° C., no compound pre-incubation
Procedure: FIG. 12. Assay Evaluation in Manual Compound Screens. […] B. We assayed 3 different rhomboid proteases independently in hand-pipetted 384-well screens against a custom-assembled library of protease inhibitors, combinatorial compounds, and membrane enzyme inhibitors (all in DMSO). Assays were conducted for 1 hour at 37° C. and fluorescence intensity was read every 2 minutes. Graphed are the 60 minute values, with the last (rightmost) 7 wells being the isocoumarin inhibition controls.
An important consideration is assay suitability for HTS, which we evaluated by manually screening a diverse panel of class-specific protease inhibitors (natural products, sulphonyl fluorides, hydroxamate-based metalloprotease inhibitors, vinyl sulfones, isocoumarins, chloromethyl ketones, proteasomal inhibitors, aspartyl protease inhibitors, cysteine protease inhibitors), a combinatorial library of peptide diphenyl-phosphonates, and over a dozen lipid enzyme inhibitors/drugs (some of which are known to affect other intramembrane proteases). We hand-assembled this library of 111 compounds because it represents likely candidates for real rhomboid inhibitors on the one hand, and on the other poses challenges for assay performance because most are chemically-reactive (warhead) molecules. […]

T2 sequence (P09391 whole entry): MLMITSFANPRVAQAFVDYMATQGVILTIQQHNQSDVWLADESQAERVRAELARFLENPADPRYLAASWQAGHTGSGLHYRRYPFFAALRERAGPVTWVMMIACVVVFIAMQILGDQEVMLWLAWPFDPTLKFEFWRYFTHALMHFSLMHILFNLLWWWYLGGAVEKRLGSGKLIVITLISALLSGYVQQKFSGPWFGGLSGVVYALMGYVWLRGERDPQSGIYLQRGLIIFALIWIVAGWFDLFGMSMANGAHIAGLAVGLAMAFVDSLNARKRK
Chain of EcGlpG (P09391 whole entry): as above
T5 sequence (P09391 whole entry C104A/H254A): as the sequence (P09391 whole entry) above, with C104A, H254A counted along it

Spitz: Drosophila signaling molecule Spitz residues 135-168 of 186, FITC-labelled substrate
kcat and KM relative to TatA (HA-PsAarA): lower kcat without any significant change in KM

CC[C@H](C)[C@H](NC(=O)[C@H](CC(C)C)NC(=O)[C@@H](NC(=O)[C@@H](NC(=O)[C@H](CC(C)C)NC(=O)[C@H](CC(C)C)NC(=O)[C@H](C)NC(=O)[C@@H](NC(=O)[C@@H](NC(=O)[C@@H](NC(=O)[C@H](CC(C)C)NC(=O)[C@H](CCC(N)=O)NC(=O)[C@H](Cc1c[nH]c2ccccc12)NC(=O)[C@@H]1CCCN1C(=O)[C@H](CO)NC(=O)CNC(=O)[C@H](Cc1ccccc1)NC(=O)[C@H](C)NC(=O)[C@H](C)NC(=O)[C@@H](NC(=O)[C@H](C)NC(=O)[C@@H](NC(=O)[C@@H](NC(=O)[C@H](CO)NC(=O)[C@H](CCC(=O)O)NC(=O)[C@H](CCSC)NC(=O)CCNC(=S)Nc1ccc2c(c1)C(=O)OC21c2ccc(O)cc2Oc2cc(O)ccc21)[C@@H](C)O)[C@@H](C)CC)[C@@H](C)O)[C@@H](C)CC)[C@@H](C)CC)[C@@H](C)CC)[C@@H](C)CC)[C@@H](C)CC)C(=O)N[C@@H](Cc1ccccc1)C(=O)NCC(=O)N[C@H](C(=O)N[C@@H](CCCCN)C(=O)N[C@@H](CCCCN)C(=O)N[C@@H](CC(C)C)C(=O)N[C@@H](CCCNC(=N)N)C(N)=O)[C@@H](C)O [FITC-TatA] ({FITC-βAla}-MESTIATAAFGSPWQLIIIALLIILIFGTKKLR-NH2)
KM (E. coli GlpG; proteoliposomes of E. coli lipids, relative to phospholipid): 0.14±0.02 mole percent
kcat (E. coli GlpG; proteoliposomes, enzyme saturated with substrate): 0.0063 ± 0.00021 s⁻¹
apparent Kd [1]: 0.08±0.026 mole percent
kcat in detergent relative to proteoliposomes (HA-EcGlpG): ~6.5 fold
FITC-TatA eluting with His-EcGlpG [2]: < 0.1%
Kd [3]: > 800 µM

COc1oc(=O)c2cc(N)ccc2c1Cl [JLK6, reference compound]
effect on fluorescence signal and cleavage product of FITC-TatA cleavage (E. coli GlpG; proteoliposomes, 37° C., pretreatment with inhibitor): blocked generation of the fluorescence signal and cleavage product; also recorded: abrogated signal to background
mass shift of enzyme after incubation with inhibitor (EcGlpG): complete mass shift

O=c1occc2ccccc12 [isocoumarin]
inhibition in screen [4]: obvious evidence of inhibition of all three rhomboid proteases
